{"source": "patent US20260294853A1", "about": "“COSMETIC COMPOSITION HAVING ANTI-INFLAMMATORY ACTIVITY” (LG CHEM, LTD., priority 2023, published 2026)", "system": "Mouse macrophages", "assay": "Evaluation of Reactive Nitrogen Species Inhibiting Ability (nitric oxide production in LPS-treated mouse macrophages, Griess reagent)", "format": "cell-based", "conditions": "under the treatment concentration of the 3-hydroxypropionic acid; LPS 1 μg/ml", "experimental": "Mouse macrophages were divided into 1×10^6 cells in a 6-well plate and cultured for 24 hours, then treated with LPS (Lipopolysaccharide, concentration 1 μg/ml) solution, and treated with the 3-hydroxypropionic acid aqueous solution according to Preparation Example 1 at four concentrations (3HP concentration: 0 wt. %, 0.0125 wt. %, 0.025 wt. %, 0.05 wt. %), and then cultured again for 24 hours. Only the medium was then separated and centrifuged for 10 minutes to collect only the supernatant. The supernatant was mixed with Griess reagent (Sigma-Aldrich) reagent in a 1:1 ratio and reacted at room temperature, and then the absorbance (OD, wavelength 540 nm) was measured using a microplate reader. The measured value was substituted into the regression equation obtained from the standard curve prepared by reacting Griess reagent (Sigma-Aldrich) and NaNO2 in a 1:1 ratio to calculate the amount of nitric oxide (NO) produced. Here, the case in which neither the LPS solution nor the 3HP aqueous solution was treated was performed as a negative control group."}
{"smiles": "O=C(O)CCO", "note": "[3HP, 3-Hydroxypropionic acid]", "values": [{"measurement": "effect of inhibiting the production of reactive nitrogen species", "result": "the effect of inhibiting the production of reactive nitrogen species was exhibited"}]}
